Measured values published in patent US12239647B2, “ALS treatment using induced regulatory T (iTREG) cells” (RAPA THERAPEUTICS, LLC, priority 2018, dated 2025).

Experiments:
[1] = tested on: peripheral blood mononuclear cells from an ALS patient; test: TCR repertoire profiling by RNA sequencing pre- and post-therapy with etanercept; assay type: in vivo, human
Description: (§1) FIGS. 23A & 23B depict the use of RNA-based T cell receptor sequencing to detect a widespread up- and down-regulation of T cell TCR specificities after therapy with the TNF-α inhibitor, etanercept. In FIG. 23, RNA was isolated from peripheral blood mononuclear cells from an ALS patient pre- and post-therapy with etanercept therapy. The RNA was subjected to TCR repertoire profiling, as previously described by Rosati E, Dowds C M, Liaskou E, Henriksen E K K, Karlsen T H, Franke A. Overview of methodologies for T-cell receptor repertoire analysis. BMC Biotechnol. 2017; 17(1): 61.
as §1, with “36A-36B” for “23A & 23B”, “depict” for “depict the”, “FIGS. 36A-36B,” for “FIG. 23,”

[2] = tested on: human CD4+ and CD8+ T cells; test: Expansion of de-differentiated T cells in Th1, TREG or hybrid Th2/TREG polarization with or without pemetrexed; assay type: cell-based
Description: FIG. 13 depicts favorable expansion of de-differentiated T cells in hybrid Th2/TREG polarization condition relative to Th1 polarization condition. Human CD4^+ and CD8^+ T cells were subjected to a 3-day de-differentiation procedure (“STEP 1”). […] In addition, the T cell culture in the presence of the variable polarization conditions was performed without the novel inhibitory molecule, pemetrexed (“0”) or in the presence of variable concentrations of pemetrexed, as indicated (10 nM [“10”]; 33 nM [“33”]; or 100 nM [“100”]. After a total of 10 days of culture, the n=24 cultures were harvested and live cells were enumerated and graphed above (y-axis indicated number of cells×10^6; input cell number was 1.5×10^6 cells).

[3] = tested on: human CD4+ and CD8+ T cells; test: Flow cytometry of FOXP3, Tbet and GATA3 in extended hybrid Th2/TREG culture with temsirolimus or pemetrexed; assay type: cell-based; conditions: hybrid polarization condition with pemetrexed 10 nM
Description: To evaluate these transcription factors in our manufacturing method, T cells were first subjected to the step 1 de-differentiation procedure and then re-differentiated in the hybrid TREG-Th2 culture condition (IL-2, TGF-β, and IL-4). In addition, we compared the effects of pemetrexed with a classical mTOR inhibitor.
The iTREG phenotype is considered to be unstable; as such, we evaluated the stability of T cells re-differentiated using the hybrid TREG-Th2 culture condition at delayed time points, including days 20 and 32 of culture. In addition, to test phenotype stability in a rigorous manner, between day 24 and day 32 of culture, T cells received a high level of co-stimulation (3:1 bead-to-T cell ratio) and were propagated in media without cytokines or pharmacologic agents.
FIGS. 19A-19D illustrate that extended culture of de-differentiated T cells in the hybrid Th2/TREG polarization condition containing pemetrexed results in the generation of CD4^+ T cells expressing FOXP3 and GATA3 transcription factors. […] At days 12, 20, and 32 of culture, T cells were harvested and subjected to surface flow cytometry (CD4 marker) and intra-cellular staining for the following transcription factors, FOXP3, Tbet, and GATA3. The data above show the percent CD4 cells out of the total cultured population (FIG. 19A); the percent of CD4 cells that expressed the TREG transcription factor FOXP3 (FIG. 19B); the percent of CD4 cells that expressed the Th1 transcription factor Tbet (FIG. 19C); and the percent of CD4 cells that expressed the Th2 transcription factor GATA3 (FIG. 19D).
FIGS. 20A-20D illustrate that extended culture of de-differentiated T cells in the hybrid Th2/TREG polarization condition containing pemetrexed results in the generation of CD8^+ T cells expressing FOXP3 and GATA3 transcription factors. […] At days 12, 20, and 32 of culture, T cells were harvested and subjected to surface flow cytometry (CD8 marker) and intra-cellular staining for the following transcription factors, FOXP3, Tbet, and GATA3. […]

[4] = tested on: human CD4+ and CD8+ T cells; test: Cytokine secretion (Luminex) in extended hybrid Th2/TREG culture with temsirolimus or pemetrexed; assay type: cell-based
Description: (§2) FIGS. 21A-21D illustrates that extended culture of de-differentiated T cells in the hybrid Th2/TREG polarization condition results in the generation of T cells expressing with a predominant Th2 cytokine phenotype: IL-4, IL-5, and IL-13 secretion. […] At days 12, 20, and 32 of culture, the T cells were harvested, washed, and re-stimulated with 3/28 beads (3:1 ratio) for 24 hr; the resultant supernatant was harvested and tested for cytokine content by Luminex multi-analyte method. All results shown are expressed as cytokine level in pg per ml per 1×10^6 cells/ml/24 hr. The Th2 cytokine IL-10 was also evaluated: all values were less than 20 pg/ml per 1×10^6 cells/ml/24 hr.
as §2, with “22A-22D illustrate” for “21A-21D illustrates”, “IL-2, IFN-γ,” for “IL-4, IL-5,”, “GM-CSF” for “IL-13”, “inflammatory cytokines IL-17 and TNF-α were” for “Th2 cytokine IL-10 was”

[5] = tested on: human CD4+ and CD8+ T cells; test: RNA expression of T cell effector molecules after 3-day de-differentiation culture (Luminex Quantigene); assay type: cell-based; conditions: 3-day culture, bead:T cell 1:3, temsirolimus 1 μM, Vitamin D 0.1 or 1.0 nM; relative to control Th1/Tc1 culture
Description: (§3) At the end of the de-differentiation interval, cells were harvested, RNA was isolated, and RNA expression analysis was performed by Luminex Quantigene method. All results shown represent relative RNA expression, with results normalized to a value of 1.0 for the Th1/Tc1 control culture.

[6] = tested on: human CD4+ and CD8+ T cells; test: RNA expression of de-differentiation transcription factors and IL-7 receptor alpha after 3-day culture (Luminex Quantigene); assay type: cell-based; conditions: bead:T cell 1:3, temsirolimus 1 μM, relative to control culture
Description: as §3

[7] = tested on: human CD4+ and CD8+ T cells; test: RNA expression of Th1 transcription factors and HIF-1-α after 3-day culture (Luminex Quantigene); assay type: cell-based; conditions: bead:T cell 1:3, temsirolimus 1 μM, Vitamin D 0.1 to 1.0 nM, relative to control culture
Description: as §3

[8] = tested on: human CD4+ and CD8+ T cells; test: Western blot for autophagy-related molecule p62 after 3-day de-differentiation culture; assay type: cell-based; conditions: 3-day culture, bead:T cell 1:3; temsirolimus 1.0 or 0.3 μM, Vitamin D 0.01-1.0 nM, Daclizumab 50 μg/ml as indicated
Description: The level of autophagy can be determined in-part by the subsequent up-regulation of the autophagy substrate, p62, by western blot analysis.
After the 3-day culture interval, the T cells were harvested, and protein was isolated and subjected to western blot analysis for the autophagy-related gene, p62, and the housekeeping gene, Actin.

[9] = tested on: human CD4+ and CD8+ T cells; test: Western blot for mTORC1-related molecule Raptor after 3-day de-differentiation culture; assay type: cell-based
Description: After the 3-day culture interval, the T cells were harvested, and protein was isolated and subjected to western blot analysis for the mTORC1 complex protein, Raptor, and the housekeeping gene, Actin.

[10] = tested on: human CD4+ and CD8+ T cells; test: Western blot for Raptor, Rictor, p70S6K and SGK1 after 3-day de-differentiation culture; assay type: cell-based; conditions: combination agent de-differentiation: temsirolimus 1 μM, Vitamin D 0.03 to 1.0 nM, Daclizumab 50 μg/ml; relative to control culture
Description: After the 3-day culture interval, the T cells were harvested, and protein was isolated and subjected to western blot analysis for the mTORC1 complex protein, Raptor; the mTORC2 complex protein, Rictor; the post-mTORC1 protein p70S6K; the post-mTORC2 protein, SGK1; and the housekeeping gene, GAPDH.

[11] = tested on: human CD4+ and CD8+ T cells; test: T cell yield at day 13 after de-differentiation and re-stimulation without inhibitors; assay type: cell-based
Description: After 10 days (13 days of total culture), the T cells were harvested, enumerated, and evaluated by flow cytometry. FIG. 8 illustrates the effect of culture components during the de-differentiation interval on subsequent T cell yield (at day 13 of culture). […] After the 3-day interval, media was exchanged to fresh X-Vivo 20 without inhibitors, high-level co-stimulation was provided (3:1 bead-to-T cell ratio), and the T cell growth cytokines IL-2 (100 IU/ml) and IL-7 (10 ng/ml) were added. At day 13 of culture, viable T cells were enumerated and the overall yield is shown relative to day 0 input number.

[12] = tested on: human CD4+ and CD8+ T cells; test: Cytokine secretion (Luminex) of de-differentiated T cells cultured in polarization-neutral media; assay type: cell-based; conditions: vitamin D 0.01 nM during de-differentiation relative to 0.1 nM
Description: FIGS. 11A-11D depict the inflammatory Th1/Th17 cytokine analysis of cultured de-differentiated T cells in polarization-neutral media. […] After 3-days, the de-differentiated T cells were co-stimulated (typical bead-to-T cell ratio of 3:1) in media supplemented with the T cell growth cytokines rhu IL-2 (100 IU/ml) and rhu IL-7 (10 ng/ml), which are not potent in terms of inducing T cell polarization. After 10 days in culture (total, day 13 of culture), the T cells were harvested, washed, and re-stimulated with 3/28 beads (3:1 ratio) for 24 hr; the resultant supernatant was harvested and tested for cytokine content by Luminex multi-analyte method. All results shown are expressed as cytokine level in pg per ml per 1×10^6 cells/ml/24 hr.
FIGS. 12A-12D depicts the IL-2 and Th2-type cytokine analysis of cultured de-differentiated T cells in polarization-neutral media. […] After 3-days, the de-differentiated T cells were co-stimulated (typical bead-to-T cell ratio of 3:1) in media supplemented with the T cell growth cytokines rhu IL-2 (100 IU/ml) and rhu IL-7 (10 ng/ml), which are not potent in terms of inducing T cell polarization. […] All results shown are expressed as cytokine level in pg per ml per 1×10^6 cells/ml/24 hr.

[13] = ALS patient, pre- versus post-therapy
[14] = several clones, pre- versus post-treatment
[15] = hybrid TREG-Th2 condition, temsirolimus 1.0 μM or pemetrexed 10 nM
[16] = Vitamin D 1.0 nM in combination

Molecule: etanercept
- TCR specificities down-regulated in the post-therapy sample [1, 13]: approximately 25%
- TCR specificities up-regulated in the post-therapy sample [1, 13]: approximately 25%
- T cell clonal contraction [1, 14]: more than 4 log
- T cell clonal expansion [1, 14]: more than 4 log
- post-treatment frequencies of contracted T cell clones ([1]; several clones, 259 to 598 pre-etanercept): 0.01

Molecule: Nc1nc2[nH]cc(CCc3ccc(C(=O)N[C@@H](CCC(=O)O)C(=O)O)cc3)c2c(=O)[nH]1 [pemetrexed]
- concentration for optimal T cell re-differentiation (numerical perspective) ([2]; TREG-Th2 hybrid polarization (IL-2, TGF-β, IL-4)): 10 nM
- T cell number after re-differentiation in TREG-Th2 polarization condition ([2]; most stringent de-differentiation (temsirolimus, vitamin D, anti-IL-2 receptor antibody), pemetrexed 10 nM in step 2, 10 days): sufficient T cells
- T cell number after re-differentiation in pure TREG polarizing condition (IL-2 plus TGF-β without IL-4) ([2]; most stringent de-differentiation, in the presence of pemetrexed (cultures #20 and #21)): unsuccessful
- T cell yield after re-differentiation in Th1-type polarization ([2]; pemetrexed not added or 10 to 100 nM, input 1.5×10^6 cells): greatly limited ability to re-differentiate
- percent of CD8 cells that expressed Tbet [3]: lowest levels
- percent of CD4 cells that expressed Tbet ([3]; days 12, 20, 32): most consistently reduced TBET values
- percent of CD4 cells that expressed GATA3 ([3]; end of culture): highest end-of-culture Th2-associated GATA3 expression
- GM-CSF secretion ([4]; hybrid TREG-Th2 condition supplemented with pemetrexed 10 nM): higher degree
- IL-5 secretion [4, 15]: fully preserved
- IL-13 secretion [4, 15]: fully preserved

Molecule: C=C1/C(=C\C=C2/CCC[C@]3(C)[C@@H]([C@H](C)CCCC(C)(C)O)CC[C@@H]23)C[C@@H](O)C[C@@H]1O [Vitamin D, Calcitriol]
- Granzyme B RNA expression [5]: reduction
- IFN-gamma RNA expression [5]: reduction
- IL-10 RNA expression [5]: reduction
- IL-7 receptor alpha RNA expression [6, 16]: not Vitamin D alone
- KLF4 RNA expression [6, 16]: neither temsirolimus nor Vitamin D alone increased
- KLF10 RNA expression [6, 16]: does not act alone to up-regulate
- Nanog RNA expression ([6]; Vitamin D 0.1 or 1.0 nM): does not act alone to up-regulate
- HIF-1-α RNA expression [7]: did not down-regulate
- STAT1 RNA expression [7]: acts alone to beneficially down-regulate
- T-BET RNA expression [7]: acts alone to beneficially down-regulate
- p62 expression (western blot, autophagy marker) [8]: increased p62 expression
- Raptor expression ([9]; Vitamin D 0.3 nM (culture 7), versus 0.1 nM): higher level of Raptor expression
- Raptor inhibition ([9]; Vitamin D level reduced to 0.01 nM): sub-optimal Raptor inhibition
- Rictor expression (western blot, FIG. 6) [10]: effective
- T cell yield at day 13 of culture ([11]; Vitamin D concentration increased to 1.0 nM (column #6)): very low yield
- T cell yield at day 13 of culture ([11]; Vitamin D concentration reduced to 0.01 nM (column #5)): very low yield
- preferable concentration for T cell yield ([11]; de-differentiation interval): 0.1 nM
- IFN-γ secretion [12]: somewhat higher levels
- TNF-α secretion [12]: somewhat higher levels
